Drawing on patent US8492371B2, “Compounds as cannabinoid receptor ligands” (priority 2009, dated 2013), this text covers Ki for eleven compounds.

The target in one test is T1, rat CB2 receptors (Rattus norvegicus, UniProt Q9QZN9).
T1 construct: expressed in transfected cells; host or cells: HEK293
T1 sequence (Q9QZN9 1-360): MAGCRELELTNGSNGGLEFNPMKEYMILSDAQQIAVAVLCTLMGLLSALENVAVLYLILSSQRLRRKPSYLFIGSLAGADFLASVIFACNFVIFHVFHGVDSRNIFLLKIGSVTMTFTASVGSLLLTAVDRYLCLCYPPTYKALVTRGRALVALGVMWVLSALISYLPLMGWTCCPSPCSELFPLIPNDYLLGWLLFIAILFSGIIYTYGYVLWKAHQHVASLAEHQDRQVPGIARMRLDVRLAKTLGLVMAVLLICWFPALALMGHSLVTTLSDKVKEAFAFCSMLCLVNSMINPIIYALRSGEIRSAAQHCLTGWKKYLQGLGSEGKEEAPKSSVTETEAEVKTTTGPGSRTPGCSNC
Briefly: Rat CB2 radioligand binding assay ([3H]CP-55,940 competition). The protocol: HEK293 cells stably expressing rat CB2 receptors were grown until a confluent monolayer was formed. Briefly, the cells were harvested and homogenized in TE buffer (50 mM Tris-HCl, 1 mM MgCl2, and 1 mM EDTA) using a polytron for 2×10 second bursts in the presence of protease inhibitors, followed by centrifugation at 45,000×g for 20 minutes. The final membrane pellet was re-homogenized in storage buffer (50 mM Tris-HCl, 1 mM MgCl2, and 1 mM EDTA and 10% sucrose) and frozen at −78° C. until used. Saturation binding reactions were initiated by the addition of membrane preparation (protein concentration of 20 μg/well for rat CB2) into wells of a deep well plate containing [^3H]CP-55,940 (120 Ci/mmol, a nonselective CB agonist commercially available from Tocris) in assay buffer (50 mM Tris, 2.5 mM EDTA, 5 mM MgCl2, and 0.5 mg/mL fatty acid free BSA, pH 7.4). After 45 min incubation at 30° C., binding reaction was terminated by the addition of 300 μL/well of cold assay buffer followed by rapid vacuum filtration through a UniFilter-96 GF/C filter plates (pre-soaked in 1 mg/mL BSA for 2 hours). The bound activity was counted in a TopCount using Microscint-20. Saturation experiments were conducted with twelve concentrations of [^3H]CP-55,940 ranging from 0.01 to 8 nM. Competition experiments were conducted with 0.5 nM [^3H]CP-55,940 and five concentrations of displacing ligands selected from the range of 0.01 nM to […] addition of 10 μM unlabeled CP-55,940 (Tocris, Ellisville, Mo.) was used to assess nonspecific binding.

The target of a further test is T2, human CB2 receptors (Homo sapiens, UniProt P34972).
T2 construct: expressed in transfected cells; host or cells: HEK293
Briefly: Human CB2 radioligand binding assay ([3H]CP-55,940 competition). The protocol: The CB1 and CB2 radioligand binding assays described herein are utilized to determine the selectivity of compounds of the present invention for binding to CB2 relative to CB1 receptors.
HEK293 cells stably expressing human CB2 receptors were grown until a confluent monolayer was formed. Briefly, the cells were harvested and homogenized in TE buffer (50 mM Tris-HCl, 1 mM MgCl2, and 1 mM EDTA) using a polytron for 2×10 second bursts in the presence of protease inhibitors, followed by centrifugation at 45,000×g for 20 minutes. The final membrane pellet was re-homogenized in storage buffer (50 mM Tris-HCl, 1 mM MgCl2, and 1 mM EDTA and 10% sucrose) and frozen at −78° C. until used. Saturation binding reactions were initiated by the addition of membrane preparation (protein concentration of 5 μg/well for human CB2) into wells of a deep well plate containing ([^3H]CP-55,940 (120 Ci/mmol, a nonselective CB agonist commercially available from Tocris) in assay buffer (50 mM Tris, 2.5 mM EDTA, 5 mM MgCl2, and 0.5 mg/mL fatty acid free BSA, pH 7.4). After 90 min incubation at 30° C., binding reaction was terminated by the addition of 300 μL/well of cold assay buffer followed by rapid vacuum filtration through a UniFilter-96 GF/C filter plates (pre-soaked in 1 mg/mL BSA for 2 hours). The bound activity was counted in a TopCount using Microscint-20. Saturation experiments were conducted with twelve concentrations of [^3H]CP-55,940 ranging from 0.01 to 8 nM. Competition experiments were conducted with 0.5 nM [^3H]CP-55,940 and five concentrations of displacing ligands selected from the range of 0.01 nM to 10 μM. The addition of 10 μM unlabeled CP-55,940 (Tocris, Ellisville, Mo.) was used to assess nonspecific binding.

Setting [1] is: HEK293 membranes, 0.5 nM [3H]CP-55,940, read-out: human CB2 Ki.

SMILES strings stand for the structures. Where two headings read alike, the source gives them in different places.

T2 sequence (P34972 whole entry): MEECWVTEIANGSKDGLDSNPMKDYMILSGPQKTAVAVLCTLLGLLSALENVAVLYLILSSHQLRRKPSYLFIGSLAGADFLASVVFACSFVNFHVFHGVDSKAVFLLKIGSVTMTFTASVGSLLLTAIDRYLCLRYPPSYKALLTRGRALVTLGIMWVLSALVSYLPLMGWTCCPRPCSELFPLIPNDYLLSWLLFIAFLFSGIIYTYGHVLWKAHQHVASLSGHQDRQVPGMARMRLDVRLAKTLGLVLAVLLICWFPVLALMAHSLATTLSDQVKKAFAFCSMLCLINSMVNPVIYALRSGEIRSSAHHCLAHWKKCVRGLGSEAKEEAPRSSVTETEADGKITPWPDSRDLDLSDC

Consider `COc1ccc(C(F)(F)F)cc1C(=O)/N=c1\cc(C(C)(C)C)n(C)n1CC1CC[C@@H](C)O1` (mixture of isomers) [Example 64, N-((3E)-5-tert-butyl-1-methyl-2-{[(5R)-5-methyltetrahydrofuran-2-yl]methyl}-1,2-dihydro-3H-pyrazol-3-ylidene)-2-methoxy-5-(trifluoromethyl)benzamide], for which the Ki at rat CB2 receptors was 6.2 nM; at human CB2 receptors, 30 nM.

`COc1ccc(Cl)cc1C(=O)/N=c1\sc(C2(C(F)(F)F)CC2)nn1C[C@H]1CCCO1` [Example 1, 5-chloro-2-methoxy-N-[(2Z)-3-[(2R)-tetrahydrofuran-2-ylmethyl]-5-[1-(trifluoromethyl)cyclopropyl]-1,3,4-thiadiazol-2(3H)-ylidene]benzamide]: the Ki on rat CB2 receptors amounted to 2.9 nM; on human CB2 receptors, 51 nM.

Regarding `COc1ccc(Cl)cc1C(=O)/N=c1\sc(C2CC2)nn1CC1CCCO1` (centres unmarked) [Example 2, 5-chloro-N-[(2Z)-5-cyclopropyl-3-(tetrahydrofuran-2-ylmethyl)-1,3,4-thiadiazol-2(3 H)-ylidene]-2-methoxybenzamide], the inhibition constant (Ki) on rat CB2 receptors is 12 nM; on human CB2 receptors, 17 nM.

Take `CCOc1ccccc1C(=O)/N=c1\sc(C2CC2)nn1CC1CCCO1` (centres unmarked) [Example 3, N-[(2Z)-5-cyclopropyl-3-(tetrahydrofuran-2-ylmethyl)-1,3,4-thiadiazol-2(3H)-ylidene]-2-ethoxybenzamide]: the Ki on rat CB2 receptors came out at 71 nM; on human CB2 receptors (setting [1]) it was 114 nM.

Take `COc1ccc(Cl)cc1C(=O)/N=c1\sc(C(C)(C)C)nn1C[C@H]1CCCO1` [Example 4, N-[(2Z)-5-tert-butyl-3-[(2R)-tetrahydrofuran-2-ylmethyl]-1,3,4-thiadiazol-2(3 H)-ylidene]-5-chloro-2-methoxybenzamide]: the Ki at rat CB2 receptors was 1.2 nM; at human CB2 receptors, 6.9 nM.

As for `COc1ccc(Cl)cc1C(=O)/N=c1\sc(C2(C)CC2)nn1C[C@H]1CCCO1` [Example 5, 5-chloro-2-methoxy-N-[(2Z)-5-(1-methylcyclopropyl)-3-[(2R)-tetrahydrofuran-2-ylmethyl]-1,3,4-thiadiazol-2(3H)-ylidene]benzamide], the Ki at rat CB2 receptors is 0.9 nM; at human CB2 receptors, 9.1 nM.

With `C#CC(C)(C)c1nn(C[C@H]2CCCO2)/c(=N/C(=O)c2cc(Cl)ccc2OC)s1` [Example 6, 5-chloro-N-[(2Z)-5-(1,1-dimethylprop-2-ynyl)-3-[(2R)-tetrahydrofuran-2-ylmethyl]-1,3,4-thiadiazol-2(3H)-ylidene]-2-methoxybenzamide], the Ki came to 3.3 nM on rat CB2 receptors and 20 nM on human CB2 receptors.

Turning to `COc1ccc(Cl)cc1C(=O)/N=c1\sc(C2(C)CC(F)(F)C2(F)F)nn1C[C@H]1CCCO1` (some centres unmarked) [Example 7, 5-chloro-2-methoxy-N-[(2Z)-5-(2,2,3,3-tetrafluoro-1-methylcyclobutyl)-3-[(2 R)-tetrahydrofuran-2-ylmethyl]-1,3,4-thiadiazol-2(3H)-ylidene]benzamide], the inhibitory constant (Ki) on rat CB2 receptors stood at 1.6 nM; at human CB2 receptors it was 38 nM.

`COc1ccc(Cl)cc1C(=O)/N=c1\sc(C2(C(F)(F)F)CCC2)nn1C[C@H]1CCCO1` [Example 8, 5-chloro-2-methoxy-N-[(2Z)-3-[(2R)-tetrahydrofuran-2-ylmethyl]-5-[1-(trifluoromethyl)cyclobutyl]-1,3,4-thiadiazol-2(3H)-ylidene]benzamide] came in with a Ki on rat CB2 receptors of 0.8 nM.

As to `COc1ccc(Cl)cc1C(=O)/N=c1\sc(C(C)(C)C(F)(F)F)nn1C[C@H]1CCCO1` [Example 9, 5-chloro-2-methoxy-N-[(2Z)-3-[(2R)-tetrahydrofuran-2-ylmethyl]-5-(2,2,2-trifluoro-1,1-dimethylethyl)-1,3,4-thiadiazol-2(3H)-ylidene]benzamide], the results for the Ki on rat CB2 receptors and on human CB2 receptors were 1.4 nM and 33 nM, respectively.

As to `COc1ccc(Cl)cc1C(=O)/N=c1\ccc(C)cn1CC1CCCO1` (centres unmarked) [Example 10, 5-chloro-2-methoxy-N-[(2E)-5-methyl-1-(tetrahydrofuran-2-ylmethyl)pyridin-2(1 H)-ylidene]benzamide], the Ki at human CB2 receptors (setting [1]) is 360 nM.
